This is an account of results in US20240166703A1, “ANTI-INFLAMMATORY PEPTIDE AND METHOD OF USE THEREOF” (The Regents of the University of California, priority 2021, published 2024).

The test system of test [1] is canonical NF-κB signaling through IKK2 in RAW 264.7 murine macrophage cells. Briefly: Western blot of canonical NF-κB signaling in LPS-treated RAW 264.7 cells. Format: cell-based. To be noted: 100 ng/mL LPS for 2 hours. The procedure:
(§1) To prepare nuclear and cytoplasmic protein extracts, HeLa, MEF, and RAW 264.7 cells were lysed in buffer containing 4.3 mM Na2HPO4, 1.47 mM KH2PO4 pH 7.4, 137 mM NaCl, 2.7 mM KCl, 1 mM DTT, 0.05% (v/v) NP-40, and 1×protease inhibitor cocktail for 10 minutes on ice and spun at 3,000 rpm at 4° C. for 10 minutes. The supernatant containing the cytoplasmic fraction was quantified by Bio-Rad protein assay to determine the total amount of protein. Pellets were resuspended in nuclear extraction buffer (25 mM Tris-HCl pH 7.5, 420 mM NaCl, 10% glycerol, 0.2 mM EDTA, 1 mM DTT, 0.5 mM PMSF, 1×protease inhibitor cocktail) once and then subjected to three lysis cycles (freeze at −80° C. and thaw at 37° C.). Finally, samples were centrifuged at 13,000 rpm at 4° C. for 20 minutes, and supernatants containing the soluble nuclear fraction were measured by the Bio-Rad protein assay to determine the total amount of protein. Nuclear and cytoplasmic extracts were aliquoted and kept at −80° C.
HeLa, MEF, RAW 264.7 cells were cultured in Dulbecco's MEM containing 10% fetal bovine […] supplemented with penicillin and streptomycin, at 37° C. in a humidity incubator with 5% CO2. RAW 264.7 cells were seeded and allowed to adhere for 24 hours then treated with NEMO^ActPep or NEMO^ActPep 6G at different concentrations 60 min before the LPS challenge (100 ng/ml). After 2 hours, nuclear and cytoplasmic extracts were collected. HeLa and MEF cells seeded for 24 hours then treated with NEMO^ActPep or NEMO^ActPep 6G at different concentrations 60 min before the TNF-α challenge (10 ng/ml) for 15 minutes and then nuclear and cytoplasmic extracts were collected. MEF cells were treated with NEMO^ActPep or NEMO^ActPep 6G at different concentrations 1 hour before the LTβR challenge (300 ng/ml). After 24 hours whole cell extracts were collected and aliquoted and kept at −80° C. for further experiments.
Equivalent amounts of protein from cell extracts was separated by SDS-PAGE and transferred to polyvinylidene fluoride (PVDF) membranes (Millipore, Bedford, MA, USA). The membrane was blocked with 5% bovine serum albumin (BSA) for 1 hour at room temperature and then the membrane was incubated with the primary antibodies overnight at 4° C. Antibodies for IKK2, His, HA, Myc, GST, Ubiquitin, IκBα, phospho-IKK2, p65/ReIA, p84, γ-Actin, p100/52, phospho-ERK, phospho-JNK, phospho-p38, ERK, JNK, and p38 were used for detecting multiple specific protein targets. After binding of an appropriate secondary antibody coupled to horseradish peroxidase, the immunoreactive bands were visualized by enhanced chemiluminescence substrate.
It was then tested if the observed effect is universal across species and cell types. The effect of TAT-NEMO^ActPep was tested in RAW 264.7 murine macrophage cells treated with 100 ng/mL purified bacterial lipopolysaccharide (LPS) for 2 hours. Again, NF-κB DNA binding and ReIA subunit nuclear localization were both inhibited as were phosphorylation of the IKK2 activation loop and degradation of IκBα. […] The effect of TAT-NEMO^ActPep on NF-κB DNA binding was also analyzed in MEF cells by EMSA.
For orientation: In western blotting, separated proteins are transferred to a membrane and probed.

The test system of test [2] is NF-κB DNA binding in RAW 264.7 murine macrophage cells. Briefly: EMSA of NF-κB DNA binding, nuclear lysates of LPS-treated RAW 264.7 cells. Format: cell-based. On the procedure: as §1
HeLa, MEF, RAW 264.7 cells were cultured in Dulbecco's MEM containing 10% fetal bovine […] supplemented with penicillin and streptomycin, at 37° C. in a humidity incubator with 5% CO2. RAW 264.7 cells were seeded and allowed to adhere for 24 hours then treated with NEMO^ActPep or NEMO^ActPep 6G at different concentrations 60 min before the LPS challenge (100 ng/ml). After 2 hours, nuclear and cytoplasmic extracts were collected. […]
Electrophoretic mobility shift assay (EMSA) was performed using recombinant full length NF-κB ReIA homodimer as a positive control as previously described (45). […] The amount of protein in lysates was quantified by Bio-Rad protein assay. EMSA analysis with quantitative densitometry and signal intensity was quantitated using ImageJ software. […]
It was then tested if the observed effect is universal across species and cell types. […] The effect of TAT-NEMO^ActPep on NF-κB DNA binding was also analyzed in MEF cells by EMSA.
On the technique in general: A gel shift assay detects complexes by their altered migration in electrophoresis.

“TAT-NEMO^ActPep: HIV-1 TAT fused flexibly to human NEMO amino acids 375-391; cell permeable version of NEMO activation peptide (SEQ ID NO 2) (YGRKKRRQRRRGGLSSPLALPSQRRSPPEE)”: in test [1], the “ReIA subunit nuclear localization (western blot)” value is recorded as “inhibited”, the “degradation of IκBα (western blot)” value is “inhibited” and the “phosphorylation of the IKK2 activation loop (western blot)” value is recorded as “inhibited”. Moreover, the “NF-κB activity by EMSA relative to TAT-NEMO^ActPep 6G, compared with HeLa cells” value in test [2] (LPS-treated RAW 264.7 nuclear lysates, peptide 5-55 μM) was “to a similar degree as that observed in HeLa cells”. Further, the “NF-κB DNA binding” value in test [2] (RAW 264.7 cells, 100 ng/mL LPS for 2 hours) is “inhibited”.
